7 molecules from patent US10077261B2, “Imidazolin-5-one derivative useful as FASN inhibitors for the treatment of cancer” (Janssen Pharmaceutica NV, priority 2012, dated 2018) can be followed below.

Experiment [1] addresses Fatty Acid Synthase Keto-reductase Domain (FASN KR) (Homo sapiens, UniProt P49327). Description: Fatty Acid Synthase keto-reductase domain (FASN KR) inhibition, NADPH oxidation at 340 nm.
Experimental: After 20 minutes incubation at room temperature the plate was measured again (T2).
The decrease in absorbance was calculated as (Absorbance before incubation T1)−(Absorbance following incubation T2).
A plot of Controlmin versus test compound concentration was fitted to a 4-parameter logistic curve using a non-linear least squares regression method.
Experiment [2] has as its system A2780 ovarian cells. Description: A2780 ovarian cell proliferation assay in lipid reduced medium, with palmitate (MTT). Format: cell-based. The conditions noted are these: Homo sapiens, A2780, 96 h; read-out: pIC50 A2780 Ovarian Cell, With Palmitate (converted). The method in brief: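 In this palmitate-supplemented format, compound dilutions (30 μM down to 0.01 μM) are added to cells in lipid-reduced serum with 25 μM palmitate, 0.2% fatty-acid-free BSA and 0.25% ethanol. After four days (96 h) MTT absorbance at 544 nm is recorded and fitted by minimum sum of squares.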

Experiment [3] has as its system LNCaP-Vancouver prostate cells. Kind of experiment: In vitro LNCaP Vancouver prostate cell proliferation assay in lipid reduced medium. Format: cell-based. The conditions noted are these: read-out: pIC50 LNCaP_Vancouver prostate cell (converted). How it is done: LNCaP-Vancouver prostate cells were obtained from the Vancouver Prostate Cancer Centre. Cells were maintained in RPMI-1640, 10% Fetal Calf Serum (FCS, Hyclone), 2 mM glutamine and 50 μg/ml Gentamicin.
For the proliferation experiment 1500 LNCaP-Vancouver cells per well were seeded in a 384-well black with clear bottom plate (costar 3712BC) in 40 μl RPMI-1640, 10% Lipid reduced serum (LRS, Hyclone), 50 μg/ml Gentamicin and 2 mM Glutamine and incubated at 37° C., 5% CO2. The next day 10 μl of test compound/DMSO diluted in medium was added (3E-5M, 1E-5M, 3E-6M, 1E-6M, 3E-7M, 1E-7M, 3E-8M, 1E-8M final concentration). Compounds were tested in duplicate. After 96 h incubation at 37° C., 5% CO2 25 μl ATP-glow mix was added. The plate was incubated for 30 min at 37° C. and luminescence was measured with the Envision.
Analysis: Determination of pIC50 Values
pIC50 values were calculated as follows.
where mLC and mHC are the means of the low control wells and high control wells on the plate, after manual exclusion of outliers. The relation between the % Controlmin values and concentration was fitted to a 4-parameter logistic curve using a non-linear least squares regression method to determine the pIC50 value. Outlying data points were excluded manually to get a correct fit. The pIC50 corresponds to −log 10(IC50), if the IC50 is expressed in molar units (http://www.ncbi.nlm.nih.gov/books/NBK91994). The IC50 parameter was always determined by non-linear regression, but one or more of the other parameters may have been held fixed on a relevant input value, such as 0 for the bottom values.
For dose response curves with FASN inhibitors in LNCaP-Vancouver or PC-3M-Luc-C6 cells the curves bottom out around 30 to 40% of the control value. A standard fit PL2, forcing the lower bound to this level was used.
Representative compounds of the present invention were tested according to the procedure as described in Biological Example 4a and 4b above, with results as listed in Table 9, below.

Experiment [4] has as its target T1, hFASN enzyme (full length) (Homo sapiens, UniProt P49327).
T1 construct: 10 μL hFASN enzyme (full length, 300 ng, purified in house); made in house
Kind of experiment: Fatty Acid Synthase (FASN) inhibition scintillation proximity assay. Format: biochemical. The conditions noted are these: for inhibition at 10 µM: read-out: Human FASN % inhibition @ 10 μM, 10 μM test compound; for IC50: read-out: Human FASN pIC50 (converted). In outline: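 Scintillation proximity format: in-house full-length enzyme, 300 ng per well, pH 7.5 phosphate/DTT buffer, ³H-acetyl-CoA and malonyl-CoA. Emission counted on LEADseeker at 610 nm at least 24 h after stopping.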
A general note: In a scintillation proximity assay essentially only radioactivity close to the scintillant gives light.

The subject of experiment [5] is A2780 ovarian cells. Kind of experiment: A2780 ovarian cell proliferation assay in lipid reduced medium, without palmitate (MTT). Format: cell-based. The conditions noted are these: Homo sapiens, A2780, 96 h; read-out: pIC50 A2780 Ovarian Cell, Without Palmitate (converted).

Molecules are shown by their SMILES.

Usually inhibition stands for the drop in the measured response relative to a control, in per cent.

T1 sequence (P49327 whole entry): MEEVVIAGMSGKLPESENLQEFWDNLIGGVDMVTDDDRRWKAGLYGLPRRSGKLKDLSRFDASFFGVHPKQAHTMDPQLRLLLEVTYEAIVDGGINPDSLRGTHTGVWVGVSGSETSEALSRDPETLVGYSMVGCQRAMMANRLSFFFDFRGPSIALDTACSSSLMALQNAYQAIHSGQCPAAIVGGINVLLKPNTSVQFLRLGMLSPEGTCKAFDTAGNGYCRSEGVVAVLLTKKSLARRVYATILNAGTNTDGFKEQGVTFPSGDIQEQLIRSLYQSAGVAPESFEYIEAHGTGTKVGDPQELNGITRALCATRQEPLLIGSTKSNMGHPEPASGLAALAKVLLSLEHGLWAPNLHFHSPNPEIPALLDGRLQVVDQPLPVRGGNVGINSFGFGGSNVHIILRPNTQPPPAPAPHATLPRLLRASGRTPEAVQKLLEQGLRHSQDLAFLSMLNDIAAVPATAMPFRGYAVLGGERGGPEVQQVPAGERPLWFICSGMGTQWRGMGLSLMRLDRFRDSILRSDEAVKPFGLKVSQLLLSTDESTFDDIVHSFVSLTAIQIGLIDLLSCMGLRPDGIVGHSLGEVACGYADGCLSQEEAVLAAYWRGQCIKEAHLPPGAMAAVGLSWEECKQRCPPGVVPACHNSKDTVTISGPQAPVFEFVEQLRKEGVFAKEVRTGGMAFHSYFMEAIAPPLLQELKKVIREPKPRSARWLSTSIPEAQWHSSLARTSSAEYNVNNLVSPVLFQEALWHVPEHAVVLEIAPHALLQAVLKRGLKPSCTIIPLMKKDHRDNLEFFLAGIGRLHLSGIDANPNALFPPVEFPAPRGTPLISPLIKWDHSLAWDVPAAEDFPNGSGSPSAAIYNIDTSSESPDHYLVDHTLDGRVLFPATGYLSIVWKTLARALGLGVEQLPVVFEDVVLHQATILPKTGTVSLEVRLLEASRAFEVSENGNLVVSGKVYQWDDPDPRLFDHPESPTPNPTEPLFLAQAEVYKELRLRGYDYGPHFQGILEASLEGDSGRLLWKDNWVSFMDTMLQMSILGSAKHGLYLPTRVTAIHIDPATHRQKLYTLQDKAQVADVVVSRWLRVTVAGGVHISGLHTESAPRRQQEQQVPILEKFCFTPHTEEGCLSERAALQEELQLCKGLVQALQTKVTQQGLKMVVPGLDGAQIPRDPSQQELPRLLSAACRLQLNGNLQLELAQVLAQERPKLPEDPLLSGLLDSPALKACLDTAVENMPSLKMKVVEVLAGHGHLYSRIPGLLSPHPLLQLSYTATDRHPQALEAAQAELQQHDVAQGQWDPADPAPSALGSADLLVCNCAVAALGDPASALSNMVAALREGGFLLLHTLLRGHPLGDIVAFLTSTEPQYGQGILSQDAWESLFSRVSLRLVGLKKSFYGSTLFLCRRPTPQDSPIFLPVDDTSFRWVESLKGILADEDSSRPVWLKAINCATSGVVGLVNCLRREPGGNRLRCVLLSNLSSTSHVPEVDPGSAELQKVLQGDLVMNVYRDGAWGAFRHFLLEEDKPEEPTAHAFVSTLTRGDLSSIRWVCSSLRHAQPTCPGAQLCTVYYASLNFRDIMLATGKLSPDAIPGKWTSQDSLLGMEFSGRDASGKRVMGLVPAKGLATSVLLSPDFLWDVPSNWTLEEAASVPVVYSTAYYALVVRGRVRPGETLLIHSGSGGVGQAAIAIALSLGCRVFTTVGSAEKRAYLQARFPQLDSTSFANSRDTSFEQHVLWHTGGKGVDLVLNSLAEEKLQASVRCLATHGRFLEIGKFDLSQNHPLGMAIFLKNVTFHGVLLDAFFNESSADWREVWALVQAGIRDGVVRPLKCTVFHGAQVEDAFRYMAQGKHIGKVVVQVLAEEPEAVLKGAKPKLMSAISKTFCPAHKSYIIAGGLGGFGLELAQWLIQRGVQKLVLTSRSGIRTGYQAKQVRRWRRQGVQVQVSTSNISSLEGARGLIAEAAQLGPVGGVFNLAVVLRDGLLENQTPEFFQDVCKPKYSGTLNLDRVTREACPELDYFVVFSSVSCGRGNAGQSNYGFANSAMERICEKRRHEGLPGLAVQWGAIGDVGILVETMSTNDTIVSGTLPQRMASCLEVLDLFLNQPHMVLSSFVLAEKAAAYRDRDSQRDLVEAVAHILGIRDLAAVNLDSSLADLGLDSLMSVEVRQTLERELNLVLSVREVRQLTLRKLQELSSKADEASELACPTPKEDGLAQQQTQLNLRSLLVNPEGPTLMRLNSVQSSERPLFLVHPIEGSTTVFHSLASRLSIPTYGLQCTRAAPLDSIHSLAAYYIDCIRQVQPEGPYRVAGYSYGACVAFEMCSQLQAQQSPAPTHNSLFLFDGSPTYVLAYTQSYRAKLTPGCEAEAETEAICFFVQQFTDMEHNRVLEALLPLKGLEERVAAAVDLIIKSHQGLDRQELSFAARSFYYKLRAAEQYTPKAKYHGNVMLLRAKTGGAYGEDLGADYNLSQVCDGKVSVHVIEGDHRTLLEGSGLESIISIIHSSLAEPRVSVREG
Chain of Fatty Acid Synthase Keto-reductase Domain (FASN KR) (P49327 whole entry, the tested form may be a part): as the sequence (P49327 whole entry) above

As to `O=C(C1CC1)N1CC[C@@H](CN2C(=O)C3(CC3)N=C2c2ccc(-c3ccc4cnc(F)cc4c3)cc2)C1` [compound 220, (R)-6-((1-(cyclopropanecarbonyl)pyrrolidin-3-yl)methyl)-5-(4-(3-fluoroisoquinolin-6-yl)phenyl)-4,6-diazaspiro[2.4]hept-4-en-7-one], the IC50 in experiment [1] is 263 nM; in the experiment with A2780 ovarian cells [2], greater than 10 µM; in experiment [3] it was 1070 nM; in experiment [4], 91.2 nM; with A2780 ovarian cells [5], 339 nM. The inhibition at 10 µM in experiment [4] was 99%.

With `Cc1cc(C2=NC3(CC3)C(=O)N2C[C@@H]2CCN(C(=O)C3CC3)C2)ccc1-c1ccc2sccc2c1` [compound 230, (R)-5-(4-(benzo[b]thiophen-5-yl)-3-methylphenyl)-6-((1-(cyclopropanecarbonyl)pyrrolidin-3-yl)methyl)-4,6-diazaspiro[2.4]hept-4-en-7-one], the IC50 in experiment [1] is 105 nM; in the experiment with A2780 ovarian cells [2], greater than 10 µM; in experiment [3], 1230 nM; in experiment [4], 40.7 nM; in the experiment on A2780 ovarian cells [5], 550 nM. The inhibition at 10 µM in experiment [4] is 107%.

In the case of `O=C(C1CC1)N1CC[C@@H](CN2C(=O)C3(CC3)N=C2c2ccc(-c3ccc4occc4c3)c(F)c2)C1` [compound 232, (R)-5-(4-(benzofuran-5-yl)-3-fluorophenyl)-6-((1-(cyclopropanecarbonyl)pyrrolidin-3-yl)methyl)-4,6-diazaspiro[2.4]hept-4-en-7-one], the IC50 is 324 nM in experiment [1]; greater than 6.17 µM with A2780 ovarian cells [2]; 1820 nM in experiment [3]; 83.2 nM in experiment [4]; 2400 nM with A2780 ovarian cells [5]. Further, in experiment [4], the inhibition at 10 µM was 105%.

As for `O=C(C1CC1)N1CC[C@@H](CN2C(=O)C3(CC3)N=C2c2ccc(-c3ccc4ncccc4c3)cc2F)C1` [compound 248, (R)-6-((1-(cyclopropanecarbonyl)pyrrolidin-3-yl)methyl)-5-(2-fluoro-4-(quinolin-6-yl)phenyl)-4,6-diazaspiro[2.4]hept-4-en-7-one], the IC50 is 148 nM in experiment [1]; greater than 10 µM in the experiment with A2780 ovarian cells [2]; 479 nM in experiment [3]; 69.2 nM in experiment [4]; 513 nM in the experiment with A2780 ovarian cells [5]. For the same molecule, the inhibition at 10 µM in experiment [4] was 99%.

In the case of `Cc1sc2ccc(-c3ccc(C4=NC5(CC5)C(=O)N4C[C@@H]4CCN(C(=O)C5CC5)C4)cc3)cc2c1C` [compound 296, (R)-6-((1-(cyclopropanecarbonyl)pyrrolidin-3-yl)methyl)-5-(4-(2,3-dimethylbenzo[b]thiophen-5-yl)phenyl)-4,6-diazaspiro[2.4]hept-4-en-7-one], the IC50 in experiment [1] is 81.3 nM; in the experiment with A2780 ovarian cells [2], greater than 10 µM; in experiment [3] it was 3630 nM; in experiment [4] it was 38.9 nM; in the experiment on A2780 ovarian cells [5], roughly 2090 nM. Moreover, the inhibition at 10 µM in experiment [4] turned out to be 106%.

As for `Cc1cc(-c2ccc3cn(C)nc3c2)ccc1C1=NC2(CC2)C(=O)N1CC1CN(C(=O)C2(C)CC2)C1` [compound 336, 5-(2-methyl-4-(2-methyl-2H-indazol-6-yl)phenyl)-6-((1-(1-methylcyclopropanecarbonyl)azetidin-3-yl)methyl)-4,6-diazaspiro[2.4]hept-4-en-7-one], the IC50 in experiment [1] was 69.2 nM; in the experiment on A2780 ovarian cells [2] it was greater than 10 µM; in experiment [3], 105 nM; in experiment [4] it was 50.1 nM; in the experiment on A2780 ovarian cells [5], 20 nM. Also, in experiment [4], the inhibition at 10 µM came out at 103%.

In the case of `COC(=O)N1CC2(C1)N=C(c1ccc(-c3ccc(-c4cnn(C)c4)cc3)cc1)N(C[C@@H]1CCN(C(=O)C3CC3)C1)C2=O` [compound 725, Methyl 7-{[(3R)-1-(cyclopropylcarbonyl)pyrrolidin-3-yl]methyl}-6-[4′-(1-methyl-1H-pyrazol-4-yl)biphenyl-4-yl]-8-oxo-2,5,7-triazaspiro[3.4]oct-5-ene-2-carboxylate], the IC50 in experiment [1] was 646 nM; in experiment [3], 1660 nM; in experiment [4], 245 nM. In experiment [4], the inhibition at 10 µM was 93%.
